# Results taken from ChEMBL document CHEMBL4428125, “8-Substituted 1,3-dimethyltetrahydropyrazino[2,1-f]purinediones: Water-soluble adenosine receptor antagonists and monoamine oxidase B inhibitors” (Bioorg Med Chem, 2016).
# Key:
# Adenosine receptor A1 = target: T1, Adenosine receptor A1 (Homo sapiens, UniProt P30542); experiment: Displacement of [3H]CCPA from human A1 receptor expressed in CHO cell membrane by liquid scintillation counting method; assay type: cell membranes
# T1 sequence (P30542 whole entry): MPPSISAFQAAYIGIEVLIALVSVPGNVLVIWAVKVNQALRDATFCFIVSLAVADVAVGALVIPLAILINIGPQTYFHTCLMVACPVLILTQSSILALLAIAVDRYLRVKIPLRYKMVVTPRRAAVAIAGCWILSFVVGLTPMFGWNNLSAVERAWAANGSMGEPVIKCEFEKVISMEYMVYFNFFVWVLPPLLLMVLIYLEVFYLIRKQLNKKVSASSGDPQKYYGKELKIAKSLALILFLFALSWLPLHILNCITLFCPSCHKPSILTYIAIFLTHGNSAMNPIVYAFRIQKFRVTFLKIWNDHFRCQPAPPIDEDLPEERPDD
# Adenosine receptor A2a [1] = target: Adenosine receptor A2a (Rattus norvegicus, UniProt P30543); experiment: Displacement of [3H]MSX from A2A receptor in rat brain striatum membranes measured after 30 mins by liquid scintillation counting method; assay type: cell membranes
# Chain of Adenosine receptor A2a (Rattus norvegicus, UniProt P30543) (P30543 whole entry): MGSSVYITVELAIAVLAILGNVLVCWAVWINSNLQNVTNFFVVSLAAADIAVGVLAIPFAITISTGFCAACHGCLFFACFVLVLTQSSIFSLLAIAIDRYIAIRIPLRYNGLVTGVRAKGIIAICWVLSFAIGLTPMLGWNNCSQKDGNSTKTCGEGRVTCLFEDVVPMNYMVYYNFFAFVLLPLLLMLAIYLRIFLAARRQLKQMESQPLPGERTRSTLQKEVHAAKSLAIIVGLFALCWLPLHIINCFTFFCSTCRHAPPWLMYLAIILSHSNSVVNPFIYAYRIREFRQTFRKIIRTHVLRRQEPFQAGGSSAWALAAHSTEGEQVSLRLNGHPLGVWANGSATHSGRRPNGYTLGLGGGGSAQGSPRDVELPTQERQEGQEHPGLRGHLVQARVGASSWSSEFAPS
# Adenosine receptor A2a [2] = target: Adenosine receptor A2a (Homo sapiens, UniProt P29274); experiment: Displacement of [3H]MSX from human A2A receptor measured after 30 mins by liquid scintillation counting method
# Chain of Adenosine receptor A2a (Homo sapiens, UniProt P29274) (P29274 whole entry): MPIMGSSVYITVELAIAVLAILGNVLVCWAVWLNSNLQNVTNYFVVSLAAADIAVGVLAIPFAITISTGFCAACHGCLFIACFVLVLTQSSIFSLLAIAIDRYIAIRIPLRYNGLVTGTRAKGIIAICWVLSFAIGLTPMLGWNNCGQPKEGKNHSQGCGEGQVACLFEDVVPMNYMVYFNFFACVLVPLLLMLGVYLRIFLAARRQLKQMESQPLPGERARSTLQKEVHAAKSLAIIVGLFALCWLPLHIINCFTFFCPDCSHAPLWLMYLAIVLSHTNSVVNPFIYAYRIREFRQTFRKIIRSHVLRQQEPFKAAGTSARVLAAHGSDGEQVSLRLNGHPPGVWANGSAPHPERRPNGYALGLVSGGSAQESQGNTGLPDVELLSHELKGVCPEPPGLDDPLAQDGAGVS
# [3] = target: T2, Amine oxidase [flavin-containing] A (Homo sapiens, UniProt P21397); experiment: Inhibition of recombinant human MAO-A expressed in baculovirus infected BTI insect cells preincubated for 30 mins followed by addition of p-tyramine as substrate measured over 45 mins by Amplex Red MAO assay
# T2 sequence (P21397 whole entry): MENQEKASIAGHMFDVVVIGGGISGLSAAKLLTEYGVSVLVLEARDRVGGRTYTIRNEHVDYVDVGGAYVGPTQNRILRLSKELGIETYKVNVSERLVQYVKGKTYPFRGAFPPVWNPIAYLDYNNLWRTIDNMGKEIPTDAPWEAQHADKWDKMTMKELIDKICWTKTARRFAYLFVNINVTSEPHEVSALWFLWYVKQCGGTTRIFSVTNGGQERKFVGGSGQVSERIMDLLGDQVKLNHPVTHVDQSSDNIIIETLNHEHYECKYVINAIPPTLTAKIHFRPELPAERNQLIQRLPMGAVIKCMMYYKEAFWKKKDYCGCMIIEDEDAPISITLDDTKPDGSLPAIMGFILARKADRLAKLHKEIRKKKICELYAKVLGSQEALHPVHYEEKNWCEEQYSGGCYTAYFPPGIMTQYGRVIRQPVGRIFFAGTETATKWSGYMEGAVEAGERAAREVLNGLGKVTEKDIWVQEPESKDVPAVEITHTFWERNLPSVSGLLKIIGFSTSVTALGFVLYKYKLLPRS
# [4] = target: T2, Amine oxidase [flavin-containing] A; experiment: Inhibition of recombinant human MAO-A expressed in baculovirus infected BTI insect cells at 10 uM preincubated for 30 mins followed by addition of p-tyramine as substrate measured over 45 mins by Amplex Red MAO assay relative to control; settings: 0.75 h
# [5] = target: T3, Amine oxidase [flavin-containing] B (Homo sapiens, UniProt P27338); experiment: Inhibition of recombinant human MAO-B expressed in baculovirus infected BTI insect cells preincubated for 30 mins followed by addition of p-tyramine as substrate measured over 45 mins by Amplex Red MAO assay
# T3 sequence (P27338 whole entry): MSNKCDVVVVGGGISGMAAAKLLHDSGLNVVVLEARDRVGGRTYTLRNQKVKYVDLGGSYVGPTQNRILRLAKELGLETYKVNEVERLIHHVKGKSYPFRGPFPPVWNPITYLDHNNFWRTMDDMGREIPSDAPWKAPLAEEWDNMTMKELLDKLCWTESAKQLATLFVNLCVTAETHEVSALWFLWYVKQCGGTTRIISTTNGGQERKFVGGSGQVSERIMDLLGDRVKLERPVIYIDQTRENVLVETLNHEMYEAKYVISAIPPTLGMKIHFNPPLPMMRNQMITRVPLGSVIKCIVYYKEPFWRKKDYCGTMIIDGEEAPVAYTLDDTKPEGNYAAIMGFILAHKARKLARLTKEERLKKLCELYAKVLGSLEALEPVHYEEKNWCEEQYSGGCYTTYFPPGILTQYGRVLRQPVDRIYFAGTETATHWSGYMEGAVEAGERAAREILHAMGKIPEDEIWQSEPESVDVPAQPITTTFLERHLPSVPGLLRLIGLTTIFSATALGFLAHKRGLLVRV
# [6] = target: T4, Amine oxidase [flavin-containing] B (Rattus norvegicus, UniProt P19643); experiment: Inhibition of recombinant rat MAO-B preincubated for 30 mins followed by addition of p-tyramine as substrate measured over 45 mins by Amplex Red MAO assay
# T4 sequence (P19643 whole entry): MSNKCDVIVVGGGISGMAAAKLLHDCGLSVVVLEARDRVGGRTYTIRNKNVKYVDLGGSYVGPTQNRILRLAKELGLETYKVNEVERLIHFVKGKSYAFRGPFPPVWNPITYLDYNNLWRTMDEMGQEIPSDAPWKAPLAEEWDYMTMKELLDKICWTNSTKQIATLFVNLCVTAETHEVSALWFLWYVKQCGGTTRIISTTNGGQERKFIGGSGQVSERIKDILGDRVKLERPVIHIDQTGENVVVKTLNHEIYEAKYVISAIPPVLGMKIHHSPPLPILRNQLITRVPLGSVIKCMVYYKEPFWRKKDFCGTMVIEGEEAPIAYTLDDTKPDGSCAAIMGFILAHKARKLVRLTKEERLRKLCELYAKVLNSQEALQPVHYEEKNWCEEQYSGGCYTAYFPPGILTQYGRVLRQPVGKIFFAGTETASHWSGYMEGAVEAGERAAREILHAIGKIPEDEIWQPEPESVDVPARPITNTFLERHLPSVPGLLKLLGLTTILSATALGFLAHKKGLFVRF
# Adenosine receptor A2b = target: T5, Adenosine receptor A2b (Homo sapiens, UniProt P29275); experiment: Displacement of [3H]PSB-603 from human A2B receptor expressed in CHO cell membrane; assay type: cell membranes
# T5 sequence (P29275 whole entry): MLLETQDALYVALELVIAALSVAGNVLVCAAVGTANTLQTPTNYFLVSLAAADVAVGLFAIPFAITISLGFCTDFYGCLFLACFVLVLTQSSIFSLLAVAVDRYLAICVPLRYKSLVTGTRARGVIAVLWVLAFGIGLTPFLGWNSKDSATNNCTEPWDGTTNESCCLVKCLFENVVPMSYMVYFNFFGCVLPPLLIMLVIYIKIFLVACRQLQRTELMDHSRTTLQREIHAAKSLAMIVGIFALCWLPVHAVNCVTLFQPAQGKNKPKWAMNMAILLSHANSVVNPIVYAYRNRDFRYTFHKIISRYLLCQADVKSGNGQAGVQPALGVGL
Ki (Adenosine receptor A1) [nM],Ki (Adenosine receptor A2a [1]) [nM],Ki (Adenosine receptor A2a [2]) [nM],IC50 [3] [nM],inhibition at 10 µM [4] [%],IC50 [5] [nM],IC50 [6] [nM],Ki (Adenosine receptor A2b) [nM],SMILES
≥ 10000,557,8860,> 10000,4,385,251,> 1000,Cn1c(=O)c2c(nc3n2CCN(c2cccc(Cl)c2)C3)n(C)c1=O
393,510,595,> 10000,14,210,100,> 300,Cn1c(=O)c2c(nc3n2CCN([C@@H]2CCCc4ccccc42)C3)n(C)c1=O
